Assay results: patent US12465605B2, “Methods and materials for gender-dependent treatment of cardiovascular dysfunction” (Mayo Foundation for Medical Education and Research, priority 2019, dated 2025)

Assays:
[1] = tested on: ldlr^−/−/apoB^100/100 mice; test: ldlr-deficient, apoB100-only mice on western diet with established aortic valve disease (FCAVS); format: in vivo, mouse; settings: for relative collagen fiber thicknesses: picrosirius red
Text: Pre-clinical animal studies: ldlr^−/−/apoB^100/100 mice are low density lipoprotein receptor-deficient, apolipoprotein B100-only mice that consistently develop severe, hemodynamically significant calcific aortic valve stenosis. Thus, these mice develop stenosis in a manner suitable for studying the effects of pharmacological interventions on initiation and progression of calcific aortic valve stenosis.
Two groups of ldlr^−/−/apoB^100/100 mice were placed on Western Diet (WD) for six months, a time point that allowed the mice to develop mild-to-moderate valvular stenosis. At the six-month time point, mice were randomized into two groups: • (1) continued western diet (WD)/continued disease progression group, or • (2) continued western diet+ataciguat in food (WD+ATA)/treatment group.
At the nine-month time point, mice underwent echocardiography (high resolution ultrasound) and blood pressure (tail cuff) measurement, and were sacrificed for tissue and molecular analyses of valvular tissue (histology, immunohistochemistry, quantitative real-time RT-PCR).
A therapeutically-relevant treatment strategy in which ldlr-deficient, apoB100-only mice were fed a western diet for six months (to develop mild/moderate FCAVS) followed by western diet plus ataciguat (150 ppm mixed in food).

[2] = tested on: patients with mild-to-moderate calcific aortic valve stenosis; test: Phase II clinical trial, six months, progression of valve disease; format: in vivo, human
Text: Phase II clinical trial design: Patients with mild-to-moderate calcific aortic valve stenosis (valve area between 1.0 cm^2 and 2.0 cm^2) with well-preserved left ventricular function (ejection fraction>50%) and significant valve calcification (calcium levels>300 units by computed tomography scanning) were recruited for participation in a randomized, double-blind, placebo-controlled trial. After screening, patients were randomized into two groups: • (1) placebo treatment for a minimum of 6 months, or • (2) ataciguat treatment for a minimum of 6 months Patients underwent computed tomography measurements of aortic valve calcification, echocardiographic assessments of ventricular and aortic valve function, and DEXA scanning for assessment of systemic bone mineral density at baseline and at six month intervals after initiation of treatment.
LPA studies in humans with aortic valve calcification: Human plasma LPA levels were measured using a colorimetric, sandwich/quantitative ELISA assay (AB212165) after samples were diluted in diluent buffer. Computed tomography scanning was performed using clinical grade, high-resolution scanning methods that are well-established for assessment of aortic valve calcification. The calcium burden was measured from 3-dimensional, multi-slice images and expressed as arbitrary units (AU).
To determine whether ataciguat could slow progression of FCAVS, a randomized, double-blind, placebo-controlled study was conducted in patients with mild/moderate valvular disease. Key eligibility criteria for the study included valvular calcium levels above 300 AU, a valve area between 1.0 and 2.0 cm^2, an ejection fraction greater than 50%, and absence of congenital heart valve disease (full inclusion/exclusion criteria is shown in TABLE 1). Patients were randomized to placebo or ataciguat treatment for six months, and a subset of patients received treatment for 12 months. Importantly, there was no difference in measured hemodynamic, blood biochemistry, drug treatment, or comorbidity indices between treatment groups at baseline. Given the relatively short duration of follow-up, the primary outcome variable was the change in valvular calcium over time. Secondary and tertiary outcomes were aortic valve and left ventricular function, respectively.

[3] = 200 mg/day, all subjects combined
[4] = 200 mg/day, both sexes combined

O=C(Nc1ccc(S(=O)(=O)N2CCOCC2)cc1)c1cc(Cl)ccc1NS(=O)(=O)c1ccc(Cl)s1 [ataciguat, 5-chloro-2-[[(5-chloro-2-thienyl)sulfonyl]amino]-N-[4-(4-morpholinylsulfonyl)phenyl]-benzamide]
ejection fraction ([1]; WD-fed mice, male and female): not improved further
canonical TGFβ signaling (SMAD2/3 phosphorylation) in valve tissue ([1]; both male and female mice): increased
Col1a1 expression (mRNA) ([1]; female mice): significantly reduced
expression of Col15a1 (mRNA) ([1]; female mice): tended to be reduced
relative collagen fiber thicknesses ([1]; female mice): increase the fraction of thinner fibers
aortic valve function (cusp separation distance by echocardiography), male versus female ([1]; long-term treatment): only male mice received a therapeutic benefit
calcification in valve tissue ([1]; male and female animals): reduced
SMAD1/5/8 phosphorylation in valve tissue ([1]; male and female mice, three months): significantly attenuated
markers of osteogenesis Runx2 and SPP1 (mRNA) ([1]; male and female mice, three months, RT-PCR): reduced
diastolic function (E/e′) ([1]; male mice): significantly improved
expression of Col15a1 (mRNA) ([1]; male mice): increased
expression of collagen 1a1 (mRNA) ([1]; male mice): did not significantly affect
valvular calcium, male versus female ([1]; male mice compared with female mice): Greater reductions in valvular calcium
progression of valvular dysfunction and associated reductions in left ventricular diastolic function ([1]; male mice only, long-term treatment): significantly attenuated
relative collagen fiber thicknesses ([1]; male mice): did not impact
MMP2 expression ([1]; male or female mice): not altered
pVASP^239 in aortic valve tissue ([1]; mice of both genders, 150 ppm in food, immunohistochemistry): significantly increased
blood pressure ([1]; mice of either gender, 150 ppm in food): did not alter
expression of the SMAD2/3 target genes CTGF and COL1A1 ([1]; only in female mice): paradoxically reduced
changes in aortic valve area, male versus female patients ([2]; 200 mg/day): therapeutic benefit was predominantly conferred to male patients
changes in peak transvalvular velocity ([2]; 200 mg/day): negligible impact
aortic pulse pressure (index of arterial stiffness), seated [2, 3]: attenuated
left ventricular diastolic function (E/e′ or E/A ratio) [2, 3]: attenuate further progression of diastolic dysfunction
left ventricular systolic function (ejection fraction or stroke volume) [2, 3]: prevent the decline in left ventricular function
changes in aortic valve area [2, 4]: can attenuate progression of aortic valve dysfunction
progression of valve calcification [2, 4]: significantly attenuated
left ventricular stroke volume ([2]; 200 mg/day, female subjects): potential worsening
left ventricular systolic function ([2]; 200 mg/day, female subjects): no consistent benefit
left ventricular diastolic function (E/e′ or E/A ratio) ([2]; 200 mg/day, females): negligible therapeutic benefit
pulse pressure ([2]; 200 mg/day, females): no apparent therapeutic benefit
progression of valve calcification, male versus female patients ([2]; 200 mg/day, male patients compared to females): much greater therapeutic benefit
left ventricular diastolic function (E/e′ or E/A ratio) ([2]; 200 mg/day, male subjects): predominant recipients of any therapeutic benefit
left ventricular systolic function (ejection fraction or stroke volume) ([2]; 200 mg/day, male subjects): improved left ventricular systolic function
pulse pressure ([2]; males, compared to placebo): reduction in pulse pressure
aortic valve function vs baseline ([2]; p=0.24 vs baseline): did not worsen significantly
changes in valvular calcium in relation to baseline plasma LPA ([2]; patients with higher vs lower baseline plasma LPA): tended to receive greater therapeutic benefit
